This is an account of results in PubChem BioAssay AID668 (University of Pittsburgh Molecular Library Screening Center, 2007).

The structures appear in SMILES notation. pIC50: −log10 of the molar value.

This assay has as its target M-phase inducer phosphatase 2 (Homo sapiens) (UniProt P30305). As to the kind of experiment: Cdc25B phosphatase inhibitors with catalase present, dose response, biochemical, probe assessment (AID 668). The following applies: recombinant Cdc25B catalytic domain, phosphatase activity.

M-phase inducer phosphatase 2 (Homo sapiens), sequence (P30305 whole entry, looked up, the tested form may be a part): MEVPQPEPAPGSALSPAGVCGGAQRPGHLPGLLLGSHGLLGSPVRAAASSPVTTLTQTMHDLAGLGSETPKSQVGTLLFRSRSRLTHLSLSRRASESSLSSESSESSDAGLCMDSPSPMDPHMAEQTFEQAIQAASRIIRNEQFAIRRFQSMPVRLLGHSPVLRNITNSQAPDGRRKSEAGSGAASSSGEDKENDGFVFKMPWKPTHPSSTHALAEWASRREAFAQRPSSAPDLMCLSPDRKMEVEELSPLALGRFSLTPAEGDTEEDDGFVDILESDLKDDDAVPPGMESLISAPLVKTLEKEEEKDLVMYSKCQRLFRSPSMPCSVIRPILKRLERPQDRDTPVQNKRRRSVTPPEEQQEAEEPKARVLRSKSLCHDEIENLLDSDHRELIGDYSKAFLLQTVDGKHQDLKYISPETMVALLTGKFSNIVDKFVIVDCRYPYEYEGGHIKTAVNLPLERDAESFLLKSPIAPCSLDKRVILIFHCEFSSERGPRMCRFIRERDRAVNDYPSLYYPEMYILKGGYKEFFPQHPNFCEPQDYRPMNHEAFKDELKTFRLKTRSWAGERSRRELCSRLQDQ

The pIC50 is the IC50 on a negative log10 scale, so that one unit is a factor of ten. Turning to `COc1cccc2c(C)c(C(=O)O)[nH]c12`, the pIC50 is 5.15.
The value for `c1ccc(CSc2nnc(-c3ccco3)c(-c3ccco3)n2)cc1` was 4.81.
